BindingDB's records for doi:10.1016/S0893-133X(01)00285-8 (Novartis Pharma, 2001)

Assays:
[1] = biological target: Muscarinic acetylcholine receptor M1 (Homo sapiens, UniProt P11229)
[2] = biological target: Muscarinic acetylcholine receptor M3 (Homo sapiens, UniProt P20309)
Neuromedin-K receptor = Neuromedin-K receptor (Homo sapiens, UniProt P29371)
Substance-K receptor = Substance-K receptor (Homo sapiens, UniProt P21452)
[3] = biological target: Muscarinic acetylcholine receptor M4 (Homo sapiens, UniProt P08173)
[4] = biological target: 5-hydroxytryptamine receptor 6 (Homo sapiens, UniProt P50406)
[5] = biological target: Muscarinic acetylcholine receptor M2 (Homo sapiens, UniProt P08172)
[6] = biological target: Alpha-2C adrenergic receptor (Homo sapiens, UniProt P18825)
[7] = biological target: Sodium-dependent dopamine transporter (Homo sapiens, UniProt Q01959)
Adenosine receptor A2a = Adenosine receptor A2a (Homo sapiens, UniProt P29274)
[8] = biological target: Delta-type opioid receptor (Homo sapiens, UniProt P41143)
Cannabinoid receptor 1 = Cannabinoid receptor 1 (Homo sapiens, UniProt P21554)
[9] = biological target: Corticotropin-releasing factor receptor 2 (Homo sapiens) (UniProt Q13324)
[10] = biological target: Alpha-2A adrenergic receptor (Homo sapiens, UniProt P08913)
[11] = biological target: Beta-1 adrenergic receptor (Homo sapiens, UniProt P08588)
[12] = biological target: Gastrin/cholecystokinin type B receptor (Homo sapiens, UniProt P32239)
Substance-P receptor = Substance-P receptor (Homo sapiens, UniProt P25103)
Mu-type opioid receptor = Mu-type opioid receptor (Homo sapiens, UniProt P35372)
[13] = biological target: Alpha-2B adrenergic receptor (Homo sapiens, UniProt P18089)
[14] = biological target: 5-hydroxytryptamine receptor 3A (Homo sapiens, UniProt P46098)
[15] = biological target: Kappa-type opioid receptor (Homo sapiens, UniProt P41145)
[16] = biological target: Beta-2 adrenergic receptor (Homo sapiens, UniProt P07550)
[17] = biological target: Muscarinic acetylcholine receptor M5 (Homo sapiens, UniProt P08912)
[18] = biological target: Sodium-dependent noradrenaline transporter (Homo sapiens, UniProt P23975)
Adenosine receptor A1 = Adenosine receptor A1 (Homo sapiens, UniProt P30542)
Adenosine receptor A3 = Adenosine receptor A3 (Homo sapiens, UniProt P0DMS8)
[19] = biological target: 5-hydroxytryptamine receptor 7 (Homo sapiens, UniProt P34969)

Sequence of 5-hydroxytryptamine receptor 3A (P46098 whole entry): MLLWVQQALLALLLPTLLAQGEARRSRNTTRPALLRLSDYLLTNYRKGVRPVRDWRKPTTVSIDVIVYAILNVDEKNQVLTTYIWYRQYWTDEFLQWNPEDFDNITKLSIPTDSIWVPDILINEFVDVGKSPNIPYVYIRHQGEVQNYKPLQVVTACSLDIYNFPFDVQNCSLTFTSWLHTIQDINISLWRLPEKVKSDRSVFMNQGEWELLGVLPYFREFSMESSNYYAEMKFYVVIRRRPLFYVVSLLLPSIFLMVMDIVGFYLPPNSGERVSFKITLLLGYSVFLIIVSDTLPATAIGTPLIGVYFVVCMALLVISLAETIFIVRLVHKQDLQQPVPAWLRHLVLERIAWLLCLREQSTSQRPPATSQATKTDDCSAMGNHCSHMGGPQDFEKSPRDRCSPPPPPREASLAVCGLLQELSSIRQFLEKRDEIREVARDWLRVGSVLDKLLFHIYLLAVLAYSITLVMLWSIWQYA
Sequence of Sodium-dependent noradrenaline transporter (P23975 whole entry): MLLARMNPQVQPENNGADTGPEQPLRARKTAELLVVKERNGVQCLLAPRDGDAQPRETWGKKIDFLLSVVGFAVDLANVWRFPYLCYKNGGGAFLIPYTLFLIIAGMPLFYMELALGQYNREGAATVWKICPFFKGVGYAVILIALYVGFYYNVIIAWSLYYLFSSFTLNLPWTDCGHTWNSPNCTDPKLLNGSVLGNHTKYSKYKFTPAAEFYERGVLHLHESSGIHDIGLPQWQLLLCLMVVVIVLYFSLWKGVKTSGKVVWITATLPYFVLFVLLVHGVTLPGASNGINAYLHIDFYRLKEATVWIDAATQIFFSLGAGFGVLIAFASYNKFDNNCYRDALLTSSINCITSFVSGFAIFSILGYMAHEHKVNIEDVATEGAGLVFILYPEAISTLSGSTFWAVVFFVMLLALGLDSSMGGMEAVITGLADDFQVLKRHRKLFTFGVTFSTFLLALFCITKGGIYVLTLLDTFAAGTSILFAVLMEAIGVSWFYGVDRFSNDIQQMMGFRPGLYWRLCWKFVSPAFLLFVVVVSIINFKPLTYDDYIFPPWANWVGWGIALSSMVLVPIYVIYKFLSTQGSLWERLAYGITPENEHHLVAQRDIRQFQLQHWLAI
Sequence of Beta-1 adrenergic receptor (P08588 whole entry): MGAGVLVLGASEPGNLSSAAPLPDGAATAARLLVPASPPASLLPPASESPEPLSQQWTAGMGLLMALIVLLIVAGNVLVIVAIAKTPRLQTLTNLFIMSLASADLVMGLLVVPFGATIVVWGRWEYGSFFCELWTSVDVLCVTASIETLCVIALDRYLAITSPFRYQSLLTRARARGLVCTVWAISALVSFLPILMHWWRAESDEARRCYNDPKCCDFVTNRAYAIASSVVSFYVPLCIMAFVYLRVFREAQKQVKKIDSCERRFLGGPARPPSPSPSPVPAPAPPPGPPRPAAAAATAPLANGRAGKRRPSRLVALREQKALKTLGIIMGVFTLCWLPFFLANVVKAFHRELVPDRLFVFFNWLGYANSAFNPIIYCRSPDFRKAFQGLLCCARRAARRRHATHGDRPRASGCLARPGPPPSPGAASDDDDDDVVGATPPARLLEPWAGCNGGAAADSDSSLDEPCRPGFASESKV
Sequence of Substance-P receptor (P25103 whole entry): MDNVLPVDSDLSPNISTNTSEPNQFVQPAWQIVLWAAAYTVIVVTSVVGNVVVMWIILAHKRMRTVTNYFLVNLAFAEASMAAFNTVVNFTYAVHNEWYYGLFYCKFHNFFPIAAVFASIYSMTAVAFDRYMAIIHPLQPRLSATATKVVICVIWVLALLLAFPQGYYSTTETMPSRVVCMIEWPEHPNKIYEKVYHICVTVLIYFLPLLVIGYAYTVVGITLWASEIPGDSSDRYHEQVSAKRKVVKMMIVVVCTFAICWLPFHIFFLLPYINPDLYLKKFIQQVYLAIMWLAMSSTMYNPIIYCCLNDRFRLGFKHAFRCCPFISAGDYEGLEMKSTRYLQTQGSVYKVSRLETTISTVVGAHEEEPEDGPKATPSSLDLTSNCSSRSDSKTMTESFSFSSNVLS
Sequence of Gastrin/cholecystokinin type B receptor (P32239 whole entry): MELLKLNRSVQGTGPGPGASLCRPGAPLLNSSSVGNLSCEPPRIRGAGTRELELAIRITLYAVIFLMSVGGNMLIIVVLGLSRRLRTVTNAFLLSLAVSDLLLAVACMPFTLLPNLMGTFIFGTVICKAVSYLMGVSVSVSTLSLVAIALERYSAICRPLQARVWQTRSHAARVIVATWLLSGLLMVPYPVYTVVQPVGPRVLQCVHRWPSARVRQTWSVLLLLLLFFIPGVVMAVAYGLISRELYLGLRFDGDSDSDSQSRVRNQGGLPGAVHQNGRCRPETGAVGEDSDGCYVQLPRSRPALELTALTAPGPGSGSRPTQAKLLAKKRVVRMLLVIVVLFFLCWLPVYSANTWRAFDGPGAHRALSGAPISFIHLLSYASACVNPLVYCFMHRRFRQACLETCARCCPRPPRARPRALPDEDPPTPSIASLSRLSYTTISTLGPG
Sequence of Muscarinic acetylcholine receptor M3 (P20309 whole entry): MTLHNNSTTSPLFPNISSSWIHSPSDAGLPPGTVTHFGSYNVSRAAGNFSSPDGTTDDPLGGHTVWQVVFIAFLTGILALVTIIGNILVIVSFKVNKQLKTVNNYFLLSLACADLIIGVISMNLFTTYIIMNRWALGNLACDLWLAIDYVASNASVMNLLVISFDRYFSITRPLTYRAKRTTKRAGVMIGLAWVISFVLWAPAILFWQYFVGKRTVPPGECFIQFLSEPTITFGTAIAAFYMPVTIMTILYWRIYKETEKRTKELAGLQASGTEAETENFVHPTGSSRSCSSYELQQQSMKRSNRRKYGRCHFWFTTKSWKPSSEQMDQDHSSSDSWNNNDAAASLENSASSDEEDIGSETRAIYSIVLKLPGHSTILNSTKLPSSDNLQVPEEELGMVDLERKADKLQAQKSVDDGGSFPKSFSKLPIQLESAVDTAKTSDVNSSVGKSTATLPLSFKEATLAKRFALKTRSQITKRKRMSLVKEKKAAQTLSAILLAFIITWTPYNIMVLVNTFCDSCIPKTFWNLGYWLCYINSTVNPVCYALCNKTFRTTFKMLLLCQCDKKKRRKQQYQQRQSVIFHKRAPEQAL
Sequence of Muscarinic acetylcholine receptor M4 (P08173 whole entry): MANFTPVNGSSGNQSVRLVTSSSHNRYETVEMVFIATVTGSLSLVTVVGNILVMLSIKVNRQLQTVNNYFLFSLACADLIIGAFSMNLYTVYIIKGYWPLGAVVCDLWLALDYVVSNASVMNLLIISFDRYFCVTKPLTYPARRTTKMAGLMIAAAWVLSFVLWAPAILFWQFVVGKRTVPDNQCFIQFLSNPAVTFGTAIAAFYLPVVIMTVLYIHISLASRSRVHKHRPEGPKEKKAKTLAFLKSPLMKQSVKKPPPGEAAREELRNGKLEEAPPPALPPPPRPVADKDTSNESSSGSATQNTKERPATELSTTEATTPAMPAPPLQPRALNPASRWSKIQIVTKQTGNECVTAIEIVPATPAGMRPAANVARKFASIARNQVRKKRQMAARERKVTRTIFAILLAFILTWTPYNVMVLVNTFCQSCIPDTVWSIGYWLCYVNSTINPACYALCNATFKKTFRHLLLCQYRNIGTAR
Sequence of Delta-type opioid receptor (P41143 whole entry): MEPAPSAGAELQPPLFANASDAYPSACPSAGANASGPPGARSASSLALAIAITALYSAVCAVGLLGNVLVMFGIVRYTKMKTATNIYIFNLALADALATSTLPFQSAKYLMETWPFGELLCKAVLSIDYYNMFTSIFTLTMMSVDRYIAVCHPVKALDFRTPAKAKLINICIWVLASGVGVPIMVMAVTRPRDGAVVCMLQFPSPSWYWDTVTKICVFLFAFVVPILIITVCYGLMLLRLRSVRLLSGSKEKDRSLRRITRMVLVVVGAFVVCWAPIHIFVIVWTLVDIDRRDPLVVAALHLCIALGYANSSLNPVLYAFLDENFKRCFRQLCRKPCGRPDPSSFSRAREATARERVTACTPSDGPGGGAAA
Sequence of Muscarinic acetylcholine receptor M2 (P08172 whole entry): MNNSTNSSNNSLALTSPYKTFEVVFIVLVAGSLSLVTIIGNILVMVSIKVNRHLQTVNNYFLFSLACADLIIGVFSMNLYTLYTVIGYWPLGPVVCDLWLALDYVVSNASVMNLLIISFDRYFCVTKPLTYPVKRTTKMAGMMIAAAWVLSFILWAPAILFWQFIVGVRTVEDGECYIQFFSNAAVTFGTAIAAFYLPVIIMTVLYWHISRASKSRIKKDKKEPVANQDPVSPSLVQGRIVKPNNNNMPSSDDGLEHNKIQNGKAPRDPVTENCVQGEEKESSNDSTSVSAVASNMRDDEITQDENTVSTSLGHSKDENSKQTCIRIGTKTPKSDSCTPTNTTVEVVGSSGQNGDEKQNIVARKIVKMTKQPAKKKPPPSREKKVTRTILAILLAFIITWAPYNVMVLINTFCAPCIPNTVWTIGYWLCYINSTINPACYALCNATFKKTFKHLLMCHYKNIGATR
Sequence of Sodium-dependent dopamine transporter (Q01959 whole entry): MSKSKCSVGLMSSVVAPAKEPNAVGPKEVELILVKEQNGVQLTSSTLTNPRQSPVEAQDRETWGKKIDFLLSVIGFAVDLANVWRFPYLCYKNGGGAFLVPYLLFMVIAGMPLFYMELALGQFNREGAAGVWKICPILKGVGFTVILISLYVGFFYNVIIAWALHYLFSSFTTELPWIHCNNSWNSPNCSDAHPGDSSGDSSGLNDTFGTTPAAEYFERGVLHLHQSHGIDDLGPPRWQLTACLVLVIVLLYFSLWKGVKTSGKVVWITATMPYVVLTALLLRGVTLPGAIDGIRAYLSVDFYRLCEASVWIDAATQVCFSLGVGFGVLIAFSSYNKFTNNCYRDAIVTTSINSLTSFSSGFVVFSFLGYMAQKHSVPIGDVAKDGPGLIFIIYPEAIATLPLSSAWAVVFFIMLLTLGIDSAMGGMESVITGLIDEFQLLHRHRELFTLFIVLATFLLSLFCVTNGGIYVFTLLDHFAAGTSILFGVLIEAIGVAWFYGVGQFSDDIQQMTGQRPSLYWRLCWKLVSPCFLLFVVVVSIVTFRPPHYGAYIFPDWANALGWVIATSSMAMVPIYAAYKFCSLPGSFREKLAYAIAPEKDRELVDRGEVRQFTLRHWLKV

In the case of COc1cc(C(C)=O)ccc1OCCCN1CCC(c2noc3cc(F)ccc23)CC1, the Ki [1] is reported as 4.9 µM, the Ki [2] is reported as greater than 10 µM and the Ki (Neuromedin-K receptor) is reported as greater than 10 µM. It also gave a Ki (Substance-K receptor) greater than 10 µM, a Ki [3] of 8.32 µM and a Ki [4] of 0.0631 µM. It also gave a Ki [5] of 3.31 µM, a Ki [6] of 0.0162 µM and a Ki [7] of 2.95 µM. It also gave a Ki (Adenosine receptor A2a) greater than 10 µM, a Ki [8] greater than 10 µM and a Ki (Cannabinoid receptor 1) greater than 10 µM. It also gave a Ki [9] greater than 10 µM, a Ki [10] of 0.162 µM and a Ki [11] greater than 10 µM. For the same molecule, the Ki [12] was 9.33 µM, the Ki (Substance-P receptor) was greater than 10 µM and the Ki (Mu-type opioid receptor) was greater than 10 µM. It also gave a Ki [13] of 0.162 µM, a Ki [14] greater than 10 µM and a Ki [15] greater than 10 µM. The Ki [16] was greater than 10 µM, the Ki [17] was greater than 10 µM and the Ki [18] was 1.48 µM. The Ki (Adenosine receptor A1) was greater than 10 µM, the Ki (Adenosine receptor A3) was greater than 10 µM and the Ki [19] was 0.112 µM.
